Source: ChEMBL document CHEMBL5325459, “Design, synthesis, and analgesia evaluation of novel Transient Receptor Potential Vanilloid 1 (TRPV1) agonists modified from Cannabidiol (CBD)” (Bioorg Med Chem, 2023)

What was measured:
[1] = Toxicity in Kunming mouse assessed as decrease in core body temperature at 50 mg/kg measured after 15 mins; format: organism-based; settings: in vivo, 0.25 h
[2] = target: T1, Transient receptor potential cation channel subfamily V member 1 (Homo sapiens, UniProt Q8NER1); experiment: Agonist activity at human TRPV1 overexpressed in HEK293 cells incubated for 1 hr by Fluo-4 AM dye based microscopic analysis; format: cell-based
T1 sequence (Q8NER1 whole entry): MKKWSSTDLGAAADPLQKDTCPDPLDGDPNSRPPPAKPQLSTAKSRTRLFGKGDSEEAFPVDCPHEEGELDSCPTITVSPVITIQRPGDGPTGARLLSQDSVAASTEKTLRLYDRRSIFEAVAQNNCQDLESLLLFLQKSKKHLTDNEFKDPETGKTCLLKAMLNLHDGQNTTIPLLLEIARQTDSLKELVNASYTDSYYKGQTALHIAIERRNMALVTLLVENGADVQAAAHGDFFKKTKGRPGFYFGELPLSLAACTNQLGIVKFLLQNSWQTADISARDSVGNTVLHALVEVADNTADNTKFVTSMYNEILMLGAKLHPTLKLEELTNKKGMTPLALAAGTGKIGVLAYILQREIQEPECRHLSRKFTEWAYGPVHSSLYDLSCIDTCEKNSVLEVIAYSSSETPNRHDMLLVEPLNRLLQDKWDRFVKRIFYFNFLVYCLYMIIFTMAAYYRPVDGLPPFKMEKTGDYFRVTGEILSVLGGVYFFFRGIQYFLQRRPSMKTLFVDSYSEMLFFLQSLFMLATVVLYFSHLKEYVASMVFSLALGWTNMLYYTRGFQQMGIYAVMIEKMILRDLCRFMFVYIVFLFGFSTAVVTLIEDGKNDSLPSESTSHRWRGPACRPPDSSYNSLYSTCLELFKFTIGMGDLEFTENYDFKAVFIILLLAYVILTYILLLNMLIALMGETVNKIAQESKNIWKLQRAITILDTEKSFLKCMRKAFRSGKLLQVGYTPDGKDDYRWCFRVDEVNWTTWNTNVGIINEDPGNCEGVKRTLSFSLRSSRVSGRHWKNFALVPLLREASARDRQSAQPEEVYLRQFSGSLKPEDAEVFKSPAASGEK

[3] = Toxicity in Kunming mouse assessed as decrease in core body temperature at 50 mg/kg measured upto hrs; format: organism-based; settings: in vivo
[4] = target: T1, Transient receptor potential cation channel subfamily V member 1; experiment: Binding affinity to human TRPV1 assessed as dissociation constant by SPR analysis

| Compound | EC50 [2] [µM] | further results |
| --- | --- | --- |
| COc1ccc(COC(=O)CCc2cc(O)c(NS(=O)(=O)c3cc(F)cc(F)c3)c(O)c2)cc1OC |  | Activity [1]: Toxic |
| CCCCCc1cc(O)c(NC(=O)Nc2cccc3ncccc23)c(O)c1 | 40.5 |  |
| COc1cc(COC(=O)CCc2cc(O)c(NS(=O)(=O)c3cc(F)cc(F)c3)c(O)c2)ccc1O |  | Activity [3]: Non-Toxic |
| CCCCCc1cc(O)c(NS(=O)(=O)c2cccc3cccnc23)c(O)c1 | 36.4 |  |
| CCCCCc1cc(O)c(NS(=O)(=O)c2ccc(-c3ccccc3)cc2)c(O)c1 | 4.42 |  |
| CCCCCc1cc(O)c(NC(=O)c2ccc(=O)oc2)c(O)c1 | 71.2 |  |
| CCCCCc1cc(O)c(NS(=O)(=O)c2cccc(C(F)(F)F)c2)c(O)c1 | 10.4 |  |
| C=C(C)[C@@H]1CCC(C)=C[C@H]1c1c(O)cc(CCCCC)cc1O [CANNABIDIOL] | 38.5 | Activity [3]: Non-Toxic; Kd [4]: 110 µM |
| CCCCCc1cc(O)c(NS(=O)(=O)c2cc(F)cc(F)c2)c(O)c1 | 39.8 |  |
